Test results: patent US11377451B2, “Compositions and methods for treating cancer” (The Regents of the University of California, priority 2019, dated 2022)

Experiments:
HK301 = assay: GI50 assay (Cell Titer Glo proliferation, 3 days); assay type: cell-based, human; conditions: Homo sapiens, 72 h; HK301, 3 days; read-out: HK301 GI50
GBM39 = assay: GI50 assay (Cell Titer Glo proliferation, 3 days); assay type: cell-based, human; conditions: Homo sapiens, 72 h; GBM39, 3 days

Row | SMILES | GI50 (HK301) | GI50 (GBM39)
1 | Fc1c(Br)cccc1Nc1ncnc2cc3c(cc12)OC(CCN1CCCC1)CO3 (racemic) [JGK084, (±)-N-(3-Bromo-2-fluorophenyl)-7-[2-(pyrrolidin-1-yl)ethyl]-7,8-dihydro[1,4]dioxino[2,3-g]quinazolin-4-amine] | 1.83 µM | 5.64 µM
2 | N#Cc1cccc(Nc2ncnc3cc4c(cc23)OCCO4)c1 [JGK045, 3-[(7,8-Dihydro[1,4]dioxino[2,3-g]quinazolin-4-yl)amino]benzonitrile] | 3.94 µM | 10.9 µM
3 | Fc1cc(F)c(Nc2ncnc3cc4c(cc23)OCCO4)c(F)c1 [JGK029] | 24.4 µM | 34 µM
4 | COC1N=C(N(C(=O)OC(C)(C)C)c2cccc(Cl)c2F)c2cc3c(cc2N1C(=O)OC(C)(C)C)OCCO3 (stereo not drawn) [JGK013] | 1.55 µM | 220 µM
5 | Fc1c(Br)cccc1Nc1ncnc2cc3c(cc12)OCC(CN1CCCCC1)O3 (racemic) [JGK080, (±)-N-(3-Bromo-2-fluorophenyl)-8-[(piperidin-1-yl)methyl]-7,8-dihydro[1,4]dioxino[2,3-g]quinazolin-4-amine] | 7.37 µM | 14.5 µM
6 | CC(=O)N(c1cccc(Cl)c1F)c1ncnc2cc3c(cc12)OCCO3 [JGK0012] | 5.48 µM | 10.8 µM
7 | COc1cc2ncnc(Nc3cccc(Cl)c3F)c2cc1OC(C)=O [JGK018] | 1.07 µM | 4.54 µM
8 | CN1CCN(CC2COc3cc4c(Nc5cccc(Br)c5F)ncnc4cc3O2)CC1 (racemic) [JGK078, (±)-N-(3-Bromo-2-fluorophenyl)-8-[(4-methylpiperazin-1-yl)methyl]-7,8-dihydro[1,4]dioxino[2,3-g]quinazolin-4-amine] | 2.03 µM | 5.76 µM
9 | Fc1ccc(Nc2ncnc3cc4c(cc23)OCCO4)c(F)c1Br [JGK057, N-(3-Bromo-2,4-difluorophenyl)-7,8-dihydro[1,4]dioxino[2,3-g]quinazolin-4-amine] | 1.38 µM | 9.36 µM
10 | Fc1c(Br)cccc1Nc1ncnc2cc3c(cc12)OCC(CN1CCOCC1)O3 (racemic) [JGK076, (±)-N-(3-Bromo-2-fluorophenyl)-8-[(morpholin-4-yl)methyl]-7,8-dihydro[1,4]dioxino[2,3-g]quinazolin-4-amine] | 6.16 µM | 16.9 µM
11 | C[C@@H]1Oc2cc3ncnc(Nc4cccc(Br)c4F)c3cc2O[C@H]1C (racemic) [JGK059, (±)-trans-N-(3-Bromo-2-fluorophenyl)-7,8-dimethyl-7,8-dihydro[1,4]dioxino[2,3-g]quinazolin-4-amine] | 8.11 µM | 11.2 µM
12 | Fc1c(Br)cccc1Nc1ncnc2cc3c(cc12)OCC(CCN1CCCC1)O3 (racemic) [JGK089, (±)-N-(3-Bromo-2-fluorophenyl)-8-[2-(pyrrolidin-1-yl)ethyl]-7,8-dihydro[1,4]dioxino[2,3-g]quinazolin-4-amine] | 3.16 µM | 5.09 µM
13 | CN1CCN(CC2COc3cc4ncnc(Nc5cccc(Cl)c5F)c4cc3O2)CC1 (racemic) [JGK075, (±)-N-(3-Chloro-2-fluorophenyl)-7-[(4-methylpiperazin-1-yl)methyl]-7,8-dihydro[1,4]dioxino [2,3-g]quinazolin-4-amine] | 1.18 µM | 4 µM
14 | Brc1cccc(Nc2ncnc3cc4c(cc23)OCCO4)c1 [JGK073] | 2.06 µM | 6.07 µM
15 | C#Cc1cccc(N(C(=O)OC(C)(C)C)C2=NC(OC)N(C(=O)OC(C)(C)C)c3cc(OCCOC)c(OCCOC)cc32)c1 (stereo not drawn) [JGK001] | 2.21 µM | 19.7 µM
16 | N[C@H](Cc1ccc(Nc2ncnc3cc4c(cc23)OCCO4)cc1)C(=O)O [JGK021] | 481 µM | 556 µM
17 | CN(C)CC1COc2cc3c(Nc4cccc(Br)c4F)ncnc3cc2O1 (racemic) [JGK077, (±)-N-(3-Bromo-2-fluorophenyl)-8-[(dimethylamino)methyl]-7,8-dihydro[1,4]dioxino[2,3-g]quinazolin-4-amine] | 6.84 µM | 16.7 µM
18 | Fc1c(F)c(F)c(Nc2ncnc3cc4c(cc23)OCCO4)c(F)c1F [JGK030] | 559 µM | 961 µM
19 | CN(C)C[C@H]1COc2cc3ncnc(Nc4cccc(Br)c4F)c3cc2O1 [JGK066S] | 0.301 µM | 2.63 µM
20 | Fc1ccccc1Nc1ncnc2cc3c(cc12)OCCO3 [JGK035, N-(2-Fluorophenyl)-7,8-dihydro[1,4]dioxino[2,3-g]quinazolin-4-amine] | 4.04 µM | 10.7 µM
21 | CN1CCN(CCC2COc3cc4ncnc(Nc5cccc(Br)c5F)c4cc3O2)CC1 (racemic) [JGK070, (±)-N-(3-Bromo-2-fluorophenyl)-7-[2-(4-methylpiperazin-1-yl)ethyl]-7,8-dihydro[1,4]dioxino[2,3-g]quinazolin-4-amine] | 1.41 µM | 3.33 µM
22 | CC(=O)N(CCS(C)(=O)=O)Cc1ccc(-c2ccc3ncnc(N(C(C)=O)c4ccc(OCc5cccc(F)c5)c(Cl)c4)c3c2)o1 [JGK011] | 9.21 µM | 3.25 µM
23 | COC(=O)[C@H](Cc1ccc(Nc2ncnc3cc4c(cc23)OCCO4)cc1)NC(=O)OC(C)(C)C [JGK015] | 2.15 µM | 11.5 µM

Row | SMILES | GI50 (HK301) | GI50 (GBM39)
24 | Fc1c(Nc2ncnc3cc4c(cc23)OCCO4)ccc(Cl)c1Br [JGK053, N-(3-Bromo-4-chloro-2-fluorophenyl)-7,8-dihydro[1,4]dioxino[2,3-g]quinazolin-4-amine] | 2.78 µM | 5.28 µM
25 | Fc1c(Br)cccc1Nc1ncnc2c(F)c3c(cc12)OCCO3 [JGK071, N-(3-Bromo-2-fluorophenyl)-10-fluoro-7,8-dihydro[1,4]dioxino[2,3-g]quinazolin-4-amine] | 5.75 µM | 10.3 µM
26 | COC(=O)[C@H](Cc1ccc(Nc2ncnc3cc(O)c(O)cc23)cc1)NC(=O)OC(C)(C)C [JGK020] | 29.2 µM | 36.2 µM
27 | Fc1c(Nc2ncnc3cc4c(cc23)OCCO4)ccc(Br)c1Br [JGK054, N-(3,4-Dibromo-2-fluorophenyl)-7,8-dihydro[1,4]dioxino[2,3-g]quinazolin-4-amine] | 5.72 µM | 7.7 µM
28 | CC1Oc2cc3ncnc(Nc4cccc(Br)c4F)c3cc2OC1C (racemic) [JGK051, (±)-cis- and (±)-trans-N-(3-Bromo-2-fluorophenyl)-7,8-dimethyl-7,8-dihydro[1,4]dioxino[2,3-g]quinazolin-4-amine] | 8.25 µM | 24.1 µM
29 | Fc1ccc(F)c(Nc2ncnc3cc4c(cc23)OCCO4)c1 [JGK026] | 6.12 µM | 16.5 µM
30 | C#Cc1cccc(N(C(=O)CCCCOC(=O)CCCCOC(=O)CCCCOC(C)=O)c2ncnc3cc(OCCOC)c(OCCOC)cc23)c1 [JGK009] | 6.1 µM | 14.6 µM
31 | C=CC1COc2cc3ncnc(Nc4cccc(Br)c4F)c3cc2O1 (racemic) [JGK062, (±)-N-(3-Bromo-2-fluorophenyl)-7-ethenyl-7,8-dihydro[1,4]dioxino[2,3-g]quinazolin-4-amine] | 3.78 µM | 5.86 µM
32 | N#Cc1cccc(Nc2ncnc3cc4c(cc23)OCCO4)c1F [JGK044, 3-[(7,8-Dihydro[1,4]dioxino[2,3-g]quinazolin-4-yl)amino]-2-fluorobenzonitrile] | 4.52 µM | 5.63 µM
33 | CN(C)CCC1COc2cc3ncnc(Nc4cccc(Br)c4F)c3cc2O1 (racemic) [JGK069, (±)-N-(3-Bromo-2-fluorophenyl)-7-[2-(dimethylamino)ethyl]-7,8-dihydro[1,4]dioxino[2,3-g]quinazolin-4-amine] | 0.659 µM | 2.17 µM
34 | Oc1cc2ncnc(Nc3cccc(Cl)c3F)c2cc1O [JGK022] | 31.1 µM | 150 µM
35 | Fc1c(Br)cccc1Nc1ncnc2cc3c(cc12)OC(CN1CCCC1)CO3 (racemic) [JGK067, (±)-N-(3-Bromo-2-fluorophenyl)-7-[(pyrrolidin-1-yl)methyl]-7,8-dihydro[1,4]dioxino[2,3-g]quinazolin-4-amine] | 0.898 µM | 2.2 µM
36 | Fc1cc(Br)c(F)c(Nc2ncnc3cc4c(cc23)OCCO4)c1 [JGK061, N-(3-Bromo-2,5-difluorophenyl)-7,8-dihydro[1,4]dioxino[2,3-g]quinazolin-4-amine] | 1.13 µM | 1.73 µM
37 | Fc1cccc(F)c1Nc1ncnc2cc3c(cc12)OCCO3 [JGK027] | 5.81 µM | 11.8 µM
38 | Fc1c(Br)cccc1Nc1ncnc2cc3c(cc12)OCC(CN1CCCC1)O3 (racemic) [JGK079, (±)-N-(3-Bromo-2-fluorophenyl)-8-[(pyrrolidin-1-yl)methyl]-7,8-dihydro[1,4]dioxino[2,3-g]quinazolin-4-amine] | 7.21 µM | 15.7 µM
39 | Fc1c(Nc2ncnc3cc4c(cc23)OCCO4)cccc1C(F)(F)F [JGK039, N-[2-Fluoro-3-(trifluoromethyl)phenyl]-7,8-dihydro[1,4]dioxino[2,3-g]quinazolin-4-amine] | 3.61 µM | 7.82 µM
40 | Fc1c(Br)cccc1Nc1ncnc2cc3c(cc12)OC(CCN1CCOCC1)CO3 (racemic) [JGK064, (±)-N-(3-Bromo-2-fluorophenyl)-7-[2-(morpholin-4-yl)ethyl]-7,8-dihydro[1,4]dioxino[2,3-g]quinazolin-4-amine] | 1.21 µM | 4 µM
41 | Fc1c(Br)cc(Cl)cc1Nc1ncnc2cc3c(cc12)OCCO3 [JGK058, N-(3-Bromo-5-chloro-2-fluorophenyl)-7,8-dihydro[1,4]dioxino[2,3-g]quinazolin-4-amine] | 1.85 µM | 13 µM
42 | Fc1c(Cl)cccc1Nc1ncnc2cc3c(cc12)OCO3 [JGK041, N-(3-Chloro-2-fluorophenyl)-2H-[1,3]dioxolo[4,5-g]quinazolin-8-amine] | 1.66 µM | 6.04 µM
43 | CCOC(=O)N(c1cccc(Cl)c1F)c1ncnc2cc3c(cc12)OCCO3 [JGK047, Ethyl (3-chloro-2-fluorophenyl)7,8-dihydro[1,4]dioxino[2,3-g]quinazolin-4-ylcarbamate] | 316 µM | 
44 | C#Cc1cccc(N(C(=O)[C@H](Cc2ccccc2)NC(=O)OC(C)(C)C)c2ncnc3cc(OCCOC)c(OCCOC)cc23)c1 [JGK007] | 92.1 µM | 
45 | CC(C)(C)OC(=O)N(CCS(C)(=O)=O)Cc1ccc(-c2ccc3ncnc(Nc4ccc(OCc5cccc(F)c5)c(Cl)c4)c3c2)o1 [JGK008] | 81.3 µM | 
